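48-hour exposure; five concentrations; linearly interpolated endpoints. GI50 = concentration required for 50% inhibition of growth.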 Calls of active or inactive are those of the source. No stated cut-off is given here; in the data, active = GI50 up to about 1.1 µM and inactive = higher.
Assays:
Assay in all cases: NCI tumour cell line growth inhibition, 48 h
K562 = tested on: K562
MDA-MB-435 = tested on: MDA-MB-435
HCT-15 = tested on: HCT-15
UO-31 = tested on: UO-31
HCT-116 = tested on: HCT-116
SW-620 = tested on: SW-620
Malme-3M = tested on: Malme-3M
SK-OV-3 = tested on: SK-OV-3
A549 = tested on: A549
Hs-578T = tested on: Hs-578T
RPMI-8226 = tested on: RPMI-8226
OVCAR-8 = tested on: OVCAR-8
HOP-92 = tested on: HOP-92
LOX IMVI = tested on: LOX IMVI
BT-549 = tested on: BT-549
DU-145 = tested on: DU-145
SK-MEL-5 = tested on: SK-MEL-5
SK-MEL-2 = tested on: SK-MEL-2
RXF 393 = tested on: RXF 393
M14 = tested on: M14
NCI-H23 = tested on: NCI-H23
KM12 = tested on: KM12
PC-3 = tested on: PC-3
IGROV-1 = tested on: IGROV-1
OVCAR-3 = tested on: OVCAR-3
786-0 = tested on: 786-0
A498 = tested on: A498
NCI-H226 = tested on: NCI-H226
UACC-62 = tested on: UACC-62
SK-MEL-28 = tested on: SK-MEL-28
MCF7 = tested on: MCF7
CCRF-CEM = tested on: CCRF-CEM
MDA-N = tested on: MDA-N
TK-10 = tested on: TK-10
MDA-MB-231 = tested on: MDA-MB-231
NCI-H522 = tested on: NCI-H522
UACC-257 = tested on: UACC-257
U-251 = tested on: U-251
EKVX = tested on: EKVX
HL-60 = tested on: HL-60
OVCAR-4 = tested on: OVCAR-4
SN12C = tested on: SN12C
COLO 205 = tested on: COLO 205
ACHN = tested on: ACHN
NCI/ADR-RES = tested on: NCI/ADR-RES
SNB-75 = tested on: SNB-75
T47D = tested on: T47D
MOLT-4 = tested on: MOLT-4
SF-295 = tested on: SF-295
SF-268 = tested on: SF-268
SR = tested on: SR
NCI-H460 = tested on: NCI-H460
CAKI-1 = tested on: CAKI-1
SNB-19 = tested on: SNB-19
SF-539 = tested on: SF-539
HT-29 = tested on: HT-29
HCC 2998 = tested on: HCC 2998
OVCAR-5 = tested on: OVCAR-5
HOP-62 = tested on: HOP-62

Q: Which results are given for `CO[P@@]1(=O)O[C@@H](c2ccccc2)[C@H](O)[C@]1(O)c1ccccc1`?
A: GI50 (K562): > 100 µM (inactive); GI50 (MDA-MB-435): > 100 µM (inactive); GI50 (HCT-15): > 100 µM; GI50 (UO-31): > 100 µM (inactive); GI50 (HCT-116): > 100 µM (inactive); GI50 (SW-620): > 100 µM (inactive); GI50 (Malme-3M): > 100 µM (inactive); GI50 (SK-OV-3): > 100 µM (inactive); GI50 (A549): > 100 µM (inactive); GI50 (Hs-578T): > 100 µM (inactive); GI50 (RPMI-8226): > 100 µM (inactive); GI50 (OVCAR-8): > 100 µM (inactive); GI50 (HOP-92): > 100 µM (inactive); GI50 (LOX IMVI): > 100 µM (inactive); GI50 (BT-549): > 100 µM (inactive); GI50 (DU-145): > 100 µM (inactive); GI50 (SK-MEL-5): > 100 µM (inactive); GI50 (SK-MEL-2): > 100 µM (inactive); GI50 (RXF 393): > 100 µM (inactive); GI50 (M14): > 100 µM (inactive); GI50 (NCI-H23): > 100 µM (inactive); GI50 (KM12): > 100 µM (inactive); GI50 (PC-3): > 100 µM (inactive); GI50 (IGROV-1): > 100 µM (inactive); GI50 (OVCAR-3): > 100 µM (inactive); GI50 (786-0): > 100 µM (inactive); GI50 (A498): > 100 µM (inactive); GI50 (NCI-H226): > 100 µM (inactive); GI50 (UACC-62): > 100 µM (inactive); GI50 (SK-MEL-28): > 100 µM (inactive); GI50 (MCF7): > 100 µM (inactive); GI50 (CCRF-CEM): > 100 µM (inactive); GI50 (MDA-N): > 100 µM (inactive); GI50 (TK-10): > 100 µM (inactive); GI50 (MDA-MB-231): > 100 µM (inactive); GI50 (NCI-H522): > 100 µM (inactive); GI50 (UACC-257): > 100 µM (inactive); GI50 (U-251): > 100 µM (inactive); GI50 (EKVX): 24.9 µM (inactive); GI50 (HL-60): > 100 µM (inactive); GI50 (OVCAR-4): > 100 µM (inactive); GI50 (SN12C): > 100 µM (inactive); GI50 (COLO 205): > 100 µM (inactive); GI50 (ACHN): > 100 µM (inactive); GI50 (NCI/ADR-RES): > 100 µM (inactive); GI50 (SNB-75): > 100 µM (inactive); GI50 (T47D): > 100 µM (inactive); GI50 (MOLT-4): > 100 µM (inactive); GI50 (SF-295): > 100 µM (inactive); GI50 (SF-268): > 100 µM (inactive); GI50 (SR): > 100 µM (inactive); GI50 (NCI-H460): > 100 µM (inactive); GI50 (CAKI-1): > 100 µM (inactive); GI50 (SNB-19): > 100 µM (inactive); GI50 (SF-539): > 100 µM (inactive); GI50 (HT-29): 34 µM (inactive)

Q: Which results are given for `CCOC(=O)c1ccc(OCc2nc3cc(C(F)(F)F)ccc3nc2-c2ccccc2)cc1`?
A: GI50 (K562): 74.3 µM (inactive); GI50 (MDA-MB-435): > 100 µM (inactive); GI50 (HCT-15): > 100 µM; GI50 (UO-31): > 100 µM (inactive); GI50 (HCT-116): > 100 µM (inactive); GI50 (SW-620): > 100 µM (inactive); GI50 (HCC 2998): > 100 µM (inactive); GI50 (A549): > 100 µM (inactive); GI50 (Hs-578T): > 100 µM (inactive); GI50 (RPMI-8226): > 100 µM (inactive); GI50 (OVCAR-8): > 100 µM (inactive); GI50 (HOP-92): > 100 µM (inactive); GI50 (LOX IMVI): > 100 µM (inactive); GI50 (OVCAR-5): > 100 µM (inactive); GI50 (BT-549): > 100 µM (inactive); GI50 (DU-145): > 100 µM (inactive); GI50 (SK-MEL-5): 44 µM (inactive); GI50 (SK-MEL-2): > 100 µM (inactive); GI50 (RXF 393): > 100 µM (inactive); GI50 (M14): > 100 µM (inactive); GI50 (NCI-H23): > 100 µM (inactive); GI50 (KM12): > 100 µM (inactive); GI50 (PC-3): > 100 µM (inactive); GI50 (IGROV-1): > 100 µM (inactive); GI50 (OVCAR-3): > 100 µM (inactive); GI50 (786-0): > 100 µM (inactive); GI50 (A498): > 100 µM (inactive); GI50 (NCI-H226): > 100 µM (inactive); GI50 (UACC-62): > 100 µM (inactive); GI50 (SK-MEL-28): > 100 µM (inactive); GI50 (MCF7): > 100 µM (inactive); GI50 (CCRF-CEM): > 100 µM (inactive); GI50 (MDA-N): > 100 µM (inactive); GI50 (TK-10): > 100 µM (inactive); GI50 (MDA-MB-231): > 100 µM (inactive); GI50 (NCI-H522): > 100 µM (inactive); GI50 (UACC-257): > 100 µM (inactive); GI50 (U-251): > 100 µM (inactive); GI50 (EKVX): > 100 µM (inactive); GI50 (HL-60): > 100 µM (inactive); GI50 (OVCAR-4): > 100 µM (inactive); GI50 (SN12C): > 100 µM (inactive); GI50 (COLO 205): > 100 µM (inactive); GI50 (ACHN): > 100 µM (inactive); GI50 (NCI/ADR-RES): > 100 µM (inactive); GI50 (SNB-75): > 100 µM (inactive); GI50 (T47D): > 100 µM (inactive); GI50 (MOLT-4): > 100 µM (inactive); GI50 (SF-295): > 100 µM (inactive); GI50 (SF-268): > 100 µM (inactive); GI50 (SR): 42.1 µM (inactive); GI50 (NCI-H460): 97.9 µM (inactive); GI50 (CAKI-1): > 100 µM (inactive); GI50 (SNB-19): > 100 µM (inactive); GI50 (SF-539): > 100 µM (inactive); GI50 (HOP-62): > 100 µM (inactive); GI50 (HT-29): > 100 µM (inactive)
